Results on 18 compounds are retold here after patent publication US10294229B2, “Heteroaryl substituted aminopyridine compounds” (BRISTOL-MYERS SQUIBB COMPANY, priority 2015, dated 2019).

One data set has as its target IRAK4 (Homo sapiens (Human), UniProt Q9NWZ3). Nature of the data set: IRAK4 Inhibition Assay. The class given is biochemical. Conditions: ATP 500 μM; IRAK4 0.6 nM. The procedure, abridged:
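Mobility-shift kinase assay: 0.6 nM IRAK4, 500 μM ATP, 1.5 μM fluorescent peptide, 60 min, room temperature. Percent inhibition was normalised between enzyme-free and DMSO-only wells.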

Data set [1] can be described thus: Caco-2 Permeability Assay. The class given is in vitro ADME. Conditions: human, Caco-2, test compound 3 μM. As for the experimental part:
Caco-2 Permeability Assay
Thirteen to 27 days prior to assay, Caco-2 cells were seeded onto collagen-coated polycarbonate filter membranes in 24-well transwell plates at a density of 1.45×10^5 cells/cm^2, approximately 4.8×10^4 cells per well. The cells were grown in a culture medium consisting of DMEM supplemented with 10% fetal bovine serum, 10 mM HEPES, 1% nonessential amino acids, 2 mM L-glutamine, 100 U/mL penicillin-G, and 100 μg/mL streptomycin. The culture medium was replaced every 3 days and the cells were maintained at 37° C. in a 95% relative humidity and 5% CO2 atmosphere. The cells were evaluated for tight junction formation just prior to assay. The test compound was solubilized to 10 mM in 100% DMSO and diluted to 3 μM in assay buffer. Permeability studies were initiated by adding 200 μL assay buffer plus/minus compound to the apical transwell compartment and 600 μL assay buffer plus/minus compound to the basolateral compartment of the 24-well transwell low-binding cluster plate. For apical-to-basolateral (A to B) permeability (absorptive direction), buffer containing compound was placed in the apical compartment (donor wells), while buffer alone was placed in the corresponding basolateral compartments (receiver wells). For basolateral-to-apical (B to A) permeability (secretive direction), buffer containing compound was placed in the basolateral compartment (donor wells), while buffer alone was placed in the corresponding apical compartments (receiver wells). Transwells were then incubated for 2 hours at 37° C. in a 95% relative humidity and 5% CO2 atmosphere with gentle agitation. Following incubation, 100 μL was removed from each apical and basolateral compartment and transferred to 96-well low binding plates that had been previously loaded with 100 μL/well of acetonitrile containing 250 nM propranolol, 250 nM diclofenac, and 500 nM tolbutamide as internal standards. The samples were subsequently analyzed by LC-MS/MS to determine concentrations of compound.
(Passage across Caco-2 layers is used to estimate intestinal permeability.)

For data set [2], the system named is Human whole blood stimulated with a TLR2 agonist (lipoteichoic acid), IL-6 levels. Nature of the data set: IRAK4 Whole Blood Assay. The settings on record: lipoteichoic acid 10 μg/mL. The class given is cell-based. The procedure, abridged:
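IL-6 was quantified by cytometric bead assay in supernatants of human blood (ACD-A) stimulated for 5 h with lipoteichoic acid at 10 μg/mL final. Compound exposure preceded stimulation for 60 min at 37 °C, 5% CO2.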

SMILES strings stand for the structures. pEC50, pIC50: −log10 of the molar value. Counter-ions that a name gives are not always drawn.

IRAK4, sequence (Q9NWZ3 whole entry, species assumed): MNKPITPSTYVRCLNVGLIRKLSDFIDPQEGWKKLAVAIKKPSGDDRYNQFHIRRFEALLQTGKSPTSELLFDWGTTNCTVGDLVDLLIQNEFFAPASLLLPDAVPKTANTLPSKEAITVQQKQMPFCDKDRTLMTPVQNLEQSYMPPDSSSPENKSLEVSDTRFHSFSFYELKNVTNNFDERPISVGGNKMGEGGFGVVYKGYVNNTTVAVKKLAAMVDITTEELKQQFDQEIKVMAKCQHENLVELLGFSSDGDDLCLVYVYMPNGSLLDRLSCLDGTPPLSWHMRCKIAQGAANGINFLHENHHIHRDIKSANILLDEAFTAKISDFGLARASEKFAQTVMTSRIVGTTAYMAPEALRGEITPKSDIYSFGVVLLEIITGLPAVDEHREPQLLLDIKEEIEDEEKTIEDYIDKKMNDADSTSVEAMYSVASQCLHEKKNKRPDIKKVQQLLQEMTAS

As a reminder, the pIC50 is −log10 of the IC50, conventionally taken in molar units. Usually Papp stands for a coefficient for how fast a substance crosses the barrier. One may read the pEC50 as the EC50 on a negative log10 scale, so that one unit is a factor of ten. A low value points to a high EC50. Turning to `CC(F)Cn1cc(-c2cnc(-n3ncc4cc(C#N)cnc43)cc2NC(C)C)nn1` (single isomer, unassigned; enantiomer 1) [Example 166, 1-(5-(1-(2-fluoropropyl)-1H-1,2,3-triazol-4-yl)-4-(isopropylamino)pyridin-2-yl)-1H-pyrazolo[3,4-b]pyridine-5-carbonitrile, enantiomer 1], the pIC50 on IRAK4 is 8.22. This compound also showed an apparent permeability (Papp) at 2 h, 3 µM in data set [1] of 36.1 ×10⁻⁶ cm/s. This compound also showed a pEC50 in data set [2] of 6.96.
Take `CC(C)Nc1cc(-n2ccc3cncnc32)ncc1-c1cn(CCN2CCOCC2)nn1` [Example 3, N-isopropyl-5-(1-(2-morpholinoethyl)-1H-1,2,3-triazol-4-yl)-2-(7H-pyrrolo[2,3-d]pyrimidin-7-yl)pyridin-4-amine]: the pIC50 on IRAK4 was 8.70. The same compound yielded a Papp at 2 h, 3 µM in data set [1] of 33 ×10⁻⁶ cm/s. The pEC50 in data set [2] (Homo sapiens) was 6.25.
The corresponding values for `CC(C)Nc1cc(-n2ccc3cncnc32)ncc1-c1cn([C@@H]2CCNC[C@H]2O)nn1` [Example 4, (3R,4R)-4-(4-(4-(isopropylamino)-6-(7H-pyrrolo[2,3-d]pyrimidin-7-yl)pyridin-3-yl)-1H-1,2,3-triazol-1-yl)piperidin-3-ol] are 8.52, under 1.5 ×10⁻⁶ cm/s and 5.60.
For the compound `CC(C)Nc1cc(-n2ccc3cncnc32)ncc1-c1cn([C@H]2CCNC[C@H]2O)nn1` [Example 6, (3R,4S)-4-(4-(4-(isopropylamino)-6-(7H-pyrrolo[2,3-d]pyrimidin-7-yl)pyridin-3-yl)-1H-1,2,3-triazol-1-yl)piperidin-3-ol], the pIC50 on IRAK4 is 8.30. In addition, in data set [1], the Papp at 2 h, 3 µM was found to be 1.7 ×10⁻⁶ cm/s. In data set [2] (Homo sapiens), this compound gave a pEC50 of 5.84.
For the compound `CC(C)Nc1cc(-n2ccc3cncnc32)ncc1-c1cn([C@@H]2CCNC[C@@H]2O)nn1` [Example 7, (3S,4R)-4-(4-(4-(isopropylamino)-6-(7H-pyrrolo[2,3-d]pyrimidin-7-yl)pyridin-3-yl)-1H-1,2,3-triazol-1-yl)piperidin-3-ol], the negative logarithm of the IC50 (pIC50) at IRAK4 was 8.15. The apparent permeability coefficient (Papp) at 2 h, 3 µM in data set [1] was 3.9 ×10⁻⁶ cm/s. In addition, in data set [2] (Homo sapiens), the pEC50 is 5.39.
On to `CC(C)CCn1cc(-c2cnc(-n3ncc4cc(C#N)cnc43)cc2NC(C)C)nn1` [Example 10, 1-(5-(1-isopentyl-1H-1,2,3-triazol-4-yl)-4-(isopropylamino)pyridin-2-yl)-1H-pyrazolo[3,4-b]pyridine-5-carbonitrile, TFA], for which, at IRAK4, the pIC50 is 8.52. For the same compound, the Papp at 2 h, 3 µM in data set [1] stood at 5.5 ×10⁻⁶ cm/s. In data set [2] (Homo sapiens), this compound showed a pEC50 of 6.40.
For `CC(C)Nc1cc(-n2ncc3cc(C#N)cnc32)ncc1-c1cn(CCO)nn1` [Example 11, 1-(5-(1-(2-hydroxyethyl)-1H-1,2,3-triazol-4-yl)-4-(isopropylamino)pyridin-2-yl)-1H-pyrazolo[3,4-b]pyridine-5-carbonitrile], on IRAK4, the pIC50 is 7.96. This compound showed a Papp at 2 h, 3 µM in data set [1] of 2.8 ×10⁻⁶ cm/s. In data set [2] (Homo sapiens), this compound showed a negative-log EC50 (pEC50) of 5.71.
The corresponding values for `CC(C)Nc1cc(-n2ncc3cc(C#N)cnc32)ncc1-c1cn(CCN2CCOCC2)nn1` [Example 12, 1-(4-(isopropylamino)-5-(1-(2-morpholinoethyl)-1H-1,2,3-triazol-4-yl)pyridin-2-yl)-1H-pyrazolo[3,4-b]pyridine-5-carbonitrile] are 8.40, 23.4 ×10⁻⁶ cm/s and 6.51.
As to `N#Cc1cnc2c(cnn2-c2cc(NC3CC3)c(-c3cn(CCN4CCOCC4)nn3)cn2)c1` [Example 13, 1-(4-(cyclopropylamino)-5-(1-(2-morpholinoethyl)-1H-1,2,3-triazol-4-yl)pyridin-2-yl)-1H-pyrazolo[3,4-b]pyridine-5-carbonitrile], the negative logarithm of the IC50 (pIC50) on IRAK4 was 8.52. Further, the Papp at 2 h, 3 µM in data set [1] was determined as 22.9 ×10⁻⁶ cm/s. The compound also had a pEC50 in data set [2] (Homo sapiens) of 6.57.
For `N#Cc1cnc2c(cnn2-c2cc(NC3CC3)c(-c3cn(CCO)nn3)cn2)c1` [Example 14, 1-(4-(cyclopropylamino)-5-(1-(2-hydroxyethyl)-1H-1,2,3-triazol-4-yl)pyridin-2-yl)-1H-pyrazolo[3,4-b]pyridine-5-carbonitrile], the pIC50 on IRAK4 is 8.52. Also, the Papp at 2 h, 3 µM in data set [1] is 4.1 ×10⁻⁶ cm/s. The pEC50 in data set [2] (Homo sapiens) was 6.31.
For `CC(C)Nc1cc(-n2ncc3cc(C#N)cnc32)ncc1-c1cn(CC2CC2)nn1` [Example 16, 1-(5-(1-(cyclopropylmethyl)-1H-1,2,3-triazol-4-yl)-4-(isopropylamino)pyridin-2-yl)-1H-pyrazolo[3,4-b]pyridine-5-carbonitrile], in that order: 8.30, 14 ×10⁻⁶ cm/s and 6.07.
In the case of `CC(C)Nc1cc(-n2ncc3cc(C#N)cnc32)ncc1-c1cn(C2CCN(C)C2=O)nn1` (stereo not drawn) [Example 21, 1-(4-(isopropylamino)-5-(1-(1-methyl-2-oxopyrrolidin-3-yl)-1H-1,2,3-triazol-4-yl)pyridin-2-yl)-1H-pyrazolo[3,4-b]pyridine-5-carbonitrile], the pIC50 on IRAK4 is 8.40. For the same compound, the Papp at 2 h, 3 µM in data set [1] came to 4.2 ×10⁻⁶ cm/s. In data set [2] (Homo sapiens), this compound had a pEC50 of 6.49.
`CC(C)Nc1cc(-n2ncc3cc(C#N)c(N)nc32)ncc1-c1cn(C2CCCCC2)nn1` [Example 25, 6-amino-1-(5-(1-cyclohexyl-1H-1,2,3-triazol-4-yl)-4-(isopropylamino)pyridin-2-yl)-1H-pyrazolo[3,4-b]pyridine-5-carbonitrile]: the pIC50 at IRAK4 is 8.70. The compound also came in with a Papp at 2 h, 3 µM in data set [1] of 4.9 ×10⁻⁶ cm/s. The pEC50 in data set [2] (Homo sapiens) was 6.10.
As for `CC(C)Nc1cc(-n2ncc3cc(C#N)c(N)nc32)ncc1-c1cn(CCCO)nn1` [Example 29, 6-amino-1-(5-(1-(3-hydroxypropyl)-1H-1,2,3-triazol-4-yl)-4-(isopropylamino)pyridin-2-yl)-1H-pyrazolo[3,4-b]pyridine-5-carbonitrile], at IRAK4, the negative logarithm of the IC50 (pIC50) is 8.40. Besides, the apparent permeability coefficient (Papp) at 2 h, 3 µM in data set [1] was under 1.5 ×10⁻⁶ cm/s. The compound further showed a pEC50 in data set [2] (Homo sapiens) of 6.42.
For the compound `CCCn1cc(-c2cnc(-n3ncc4cc(C#N)cnc43)cc2NC(C)C)nn1` [Example 30, 1-(4-(isopropylamino)-5-(1-propyl-1H-1,2,3-triazol-4-yl)pyridin-2-yl)-1H-pyrazolo[3,4-b]pyridine-5-carbonitrile], the negative logarithm of the IC50 (pIC50) on IRAK4 was 8.40. In addition, in data set [1], the Papp at 2 h, 3 µM worked out at 22.5 ×10⁻⁶ cm/s. Also, in data set [2] (Homo sapiens), the pEC50 is 6.80.
Regarding `CCCn1cc(-c2cnc(-n3ncc4cc(C#N)c(N)nc43)cc2NC(C)C)nn1` [Example 33, 6-amino-1-(4-(isopropylamino)-5-(1-propyl-1H-1,2,3-triazol-4-yl)pyridin-2-yl)-1H-pyrazolo[3,4-b]pyridine-5-carbonitrile], the negative logarithm of the IC50 (pIC50) at IRAK4 was 8.52. Besides, the Papp at 2 h, 3 µM in data set [1] came out at 16.7 ×10⁻⁶ cm/s. The pEC50 in data set [2] (Homo sapiens) was 5.43.
Take `CCCn1cc(-c2cnc(-n3ncc4cc(C#N)cnc43)cc2NC2CC2)nn1` [Example 34, 1-(4-(cyclopropylamino)-5-(1-propyl-1H-1,2,3-triazol-4-yl)pyridin-2-yl)-1H-pyrazolo[3,4-b]pyridine-5-carbonitrile]: the negative logarithm of the IC50 (pIC50) on IRAK4 was 8.40. This compound also showed an apparent permeability coefficient (Papp) at 2 h, 3 µM in data set [1] of 48.1 ×10⁻⁶ cm/s. In data set [2] (Homo sapiens), this compound had a pEC50 of 6.18.
In the case of `CCCn1cc(-c2cnc(-n3ncc4cc(C#N)c(N)nc43)cc2NC2CC2)nn1` [Example 35, 6-amino-1-(4-(cyclopropylamino)-5-(1-propyl-1H-1,2,3-triazol-4-yl)pyridin-2-yl)-1H-pyrazolo [3,4-b]pyridine-5-carbonitrile], the pIC50 at IRAK4 is 8.52. Moreover, the apparent permeability coefficient (Papp) at 2 h, 3 µM in data set [1] is 23.7 ×10⁻⁶ cm/s. For the same compound, in data set [2] (Homo sapiens), the negative-log EC50 (pEC50) is 6.34.
